Values of other authors, collected in patent publication US20050182029A1, “Metformin salts of lipophilic acids” (Sonus Pharmaceuticals, Inc., priority 2002, published 2005).

Columns and labels:
[1] = healthy human subjects

CN(C)C(=N)N=C(N)N [metformin]
maximum metformin plasma levels (Cmax) (controlled clinical trials, even at maximum doses): ≤ 4000 ng/mL
steady-state plasma concentration (usual metformin doses and dosing schedules, reached within 24 to 48 hours): less than 1 ug/mL
colonic absorption [1]: poor colonic absorption
